Experimental data published in ChEMBL document CHEMBL1131152, “In vitro and in vivo activities of oligodeoxynucleotide-based thrombin inhibitors containing neutral formacetal linkages” (J Med Chem, 1998).

Target: Prothrombin (Homo sapiens) (UniProt P00734)
Assay: Relative prothrombin time was determined as the activity of the test ODN (oligodeoxynucleotide) relative to that of GS-522

Row | Compound | Relative PT
1 | Cc1cn([C@H]2C[C@H](OP(=O)(O)OC[C@H]3O[C@@H](n4cnc5c(=O)nc(N)[nH]c54)C[C@@H]3OCOC[C@H]3O[C@@H](n4cnc5c(=O)[nH]c(=N)[nH]c54)C[C@@H]3OP(=O)(O)OC[C@H]3O[C@@H](n4cc(C)c(=O)[nH]c4=O)C[C@@H]3OP(=O)(O)OC[C@H]3O[C@@H](n4cnc5c(=O)nc(N)[nH]c54)C[C@@H]3OP(=O)(O)OC[C@H]3O[C@@H](n4cc(C)c(=O)[nH]c4=O)C[C@@H]3OP(=O)(O)OC[C@H]3O[C@@H](n4cnc5c(=O)nc(N)[nH]c54)C[C@@H]3OP(=O)(O)OC[C@H]3O[C@@H](n4cnc5c(=O)[nH]c(=N)[nH]c54)C[C@@H]3OP(=O)(O)OC[C@H]3O[C@@H](n4cc(C)c(=O)[nH]c4=O)C[C@@H]3OP(=O)(O)OC[C@H]3O[C@@H](n4cc(C)c(=O)[nH]c4=O)C[C@@H]3OP(=O)(O)OC[C@H]3O[C@@H](n4cnc5c(=O)[nH]c(=N)[nH]c54)C[C@@H]3OP(=O)(O)OC[C@H]3O[C@@H](n4cnc5c(=O)nc(N)[nH]c54)C[C@@H]3O)[C@@H](COP(=O)(O)O[C@H]3C[C@H](n4cc(C)c(=O)[nH]c4=O)O[C@@H]3COP(=O)(O)O[C@H]3C[C@H](n4cnc5c(=O)[nH]c(=N)[nH]c54)O[C@@H]3COP(=O)(O)O[C@H]3C[C@H](n4cnc5c(=O)nc(N)[nH]c54)O[C@@H]3COP(=O)(O)O)O2)c(=O)[nH]c1=O | 0.8
2 | Cc1cn([C@H]2C[C@H](OCOC[C@H]3O[C@@H](n4cnc5c(=O)[nH]c(=N)[nH]c54)C[C@@H]3OP(=O)(O)OC[C@H]3O[C@@H](n4cnc5c(=O)nc(N)[nH]c54)C[C@@H]3O)[C@@H](COP(=O)(O)O[C@H]3C[C@H](n4cc(C)c(=O)[nH]c4=O)O[C@@H]3COP(=O)(O)O[C@H]3C[C@H](n4cnc5c(=O)[nH]c(=N)[nH]c54)O[C@@H]3COP(=O)(O)O[C@H]3C[C@H](n4cnc5c(=O)nc(N)[nH]c54)O[C@@H]3COP(=O)(O)O[C@H]3C[C@H](n4cc(C)c(=O)[nH]c4=O)O[C@@H]3COP(=O)(O)O[C@H]3C[C@H](n4cnc5c(=O)[nH]c(=N)[nH]c54)O[C@@H]3COP(=O)(O)O[C@H]3C[C@H](n4cc(C)c(=O)[nH]c4=O)O[C@@H]3COP(=O)(O)O[C@H]3C[C@H](n4cnc5c(=O)[nH]c(=N)[nH]c54)O[C@@H]3COP(=O)(O)O[C@H]3C[C@H](n4cnc5c(=O)nc(N)[nH]c54)O[C@@H]3COP(=O)(O)O[C@H]3C[C@H](n4cc(C)c(=O)[nH]c4=O)O[C@@H]3COP(=O)(O)O[C@H]3C[C@H](n4cc(C)c(=O)[nH]c4=O)O[C@@H]3COP(=O)(O)O[C@H]3C[C@H](n4cnc5c(=O)nc(N)[nH]c54)O[C@@H]3COP(=O)(O)O[C@H]3C[C@H](n4cnc5c(=O)nc(N)[nH]c54)O[C@@H]3COP(=O)(O)O)O2)c(=O)[nH]c1=O | 0.6
3 | Cc1cn([C@H]2C[C@H](OP(=O)(O)OC[C@H]3O[C@@H](n4cc(C)c(=O)[nH]c4=O)C[C@@H]3OP(=O)(O)OC[C@H]3O[C@@H](n4cnc5c(=O)[nH]c(=N)[nH]c54)C[C@@H]3OP(=O)(O)OC[C@H]3O[C@@H](n4cnc5c(=O)nc(N)[nH]c54)C[C@@H]3O)[C@@H](COCO[C@H]3C[C@H](n4cnc5c(=O)[nH]c(=N)[nH]c54)O[C@@H]3COP(=O)(O)O[C@H]3C[C@H](n4cnc5c(=O)nc(N)[nH]c54)O[C@@H]3COP(=O)(O)O[C@H]3C[C@H](n4cc(C)c(=O)[nH]c4=O)O[C@@H]3COP(=O)(O)O[C@H]3C[C@H](n4cnc5c(=O)nc(N)[nH]c54)O[C@@H]3COP(=O)(O)O[C@H]3C[C@H](n4cc(C)c(=O)[nH]c4=O)O[C@@H]3COP(=O)(O)O[C@H]3C[C@H](n4cnc5c(=O)[nH]c(=N)[nH]c54)O[C@@H]3COP(=O)(O)O[C@H]3C[C@H](n4cnc5c(=O)nc(N)[nH]c54)O[C@@H]3COP(=O)(O)O[C@H]3C[C@H](n4cc(C)c(=O)[nH]c4=O)O[C@@H]3COP(=O)(O)O[C@H]3C[C@H](n4cc(C)c(=O)[nH]c4=O)O[C@@H]3COP(=O)(O)O[C@H]3C[C@H](n4cnc5c(=O)[nH]c(=N)[nH]c54)O[C@@H]3COP(=O)(O)O[C@H]3C[C@H](n4cnc5c(=O)nc(N)[nH]c54)O[C@@H]3COP(=O)(O)O)O2)c(=O)[nH]c1=O | 0.8
4 | Cc1cn([C@H]2C[C@H](OCOC[C@H]3O[C@@H](n4cc(C)c(=O)[nH]c4=O)C[C@@H]3OP(=O)(O)OC[C@H]3O[C@@H](n4cnc5c(=O)nc(N)[nH]c54)C[C@@H]3OP(=O)(O)OC[C@H]3O[C@@H](n4cnc5c(=O)[nH]c(=N)[nH]c54)C[C@@H]3OP(=O)(O)OC[C@H]3O[C@@H](n4cc(C)c(=O)[nH]c4=O)C[C@@H]3OP(=O)(O)OC[C@H]3O[C@@H](n4cnc5c(=O)[nH]c(=N)[nH]c54)C[C@@H]3OP(=O)(O)OC[C@H]3O[C@@H](n4cc(C)c(=O)[nH]c4=O)C[C@@H]3OP(=O)(O)OC[C@H]3O[C@@H](n4cnc5c(=O)nc(N)[nH]c54)C[C@@H]3OP(=O)(O)OC[C@H]3O[C@@H](n4cnc5c(=O)[nH]c(=N)[nH]c54)C[C@@H]3OP(=O)(O)OC[C@H]3O[C@@H](n4cc(C)c(=O)[nH]c4=O)C[C@@H]3OCOC[C@H]3O[C@@H](n4cc(C)c(=O)[nH]c4=O)C[C@@H]3OP(=O)(O)OC[C@H]3O[C@@H](n4cnc5c(=O)[nH]c(=N)[nH]c54)C[C@@H]3OP(=O)(O)OC[C@H]3O[C@@H](n4cnc5c(=O)nc(N)[nH]c54)C[C@@H]3O)[C@@H](COP(=O)(O)O[C@H]3C[C@H](n4cnc5c(=O)[nH]c(=N)[nH]c54)O[C@@H]3COP(=O)(O)O[C@H]3C[C@H](n4cnc5c(=O)nc(N)[nH]c54)O[C@@H]3COP(=O)(O)O)O2)c(=O)[nH]c1=O | 1.1
5 | Cc1cn([C@H]2C[C@H](OP(=O)(O)OC[C@H]3O[C@@H](n4cnc5c(=O)nc(N)[nH]c54)C[C@@H]3OP(=O)(O)OC[C@H]3O[C@@H](n4cnc5c(=O)[nH]c(=N)[nH]c54)C[C@@H]3OP(=O)(O)OC[C@H]3O[C@@H](n4cc(C)c(=O)[nH]c4=O)C[C@@H]3OP(=O)(O)OC[C@H]3O[C@@H](n4cnc5c(=O)nc(N)[nH]c54)C[C@@H]3OP(=O)(O)OC[C@H]3O[C@@H](n4cc(C)c(=O)[nH]c4=O)C[C@@H]3OP(=O)(O)OC[C@H]3O[C@@H](n4cnc5c(=O)nc(N)[nH]c54)C[C@@H]3OP(=O)(O)OC[C@H]3O[C@@H](n4cnc5c(=O)[nH]c(=N)[nH]c54)C[C@@H]3OP(=O)(O)OC[C@H]3O[C@@H](n4cc(C)c(=O)[nH]c4=O)C[C@@H]3OP(=O)(O)OC[C@H]3O[C@@H](n4cc(C)c(=O)[nH]c4=O)C[C@@H]3OP(=O)(O)OC[C@H]3O[C@@H](n4cnc5c(=O)[nH]c(=N)[nH]c54)C[C@@H]3OP(=O)(O)OC[C@H]3O[C@@H](n4cnc5c(=O)nc(N)[nH]c54)C[C@@H]3O)[C@@H](COP(=O)(O)O[C@H]3C[C@H](n4cc(C)c(=O)[nH]c4=O)O[C@@H]3COP(=O)(O)O[C@H]3C[C@H](n4cnc5c(=O)[nH]c(=N)[nH]c54)O[C@@H]3COCO[C@H]3C[C@H](n4cnc5c(=O)nc(N)[nH]c54)O[C@@H]3COP(=O)(O)O)O2)c(=O)[nH]c1=O | 0.9
6 | Cc1cn([C@H]2C[C@H](OP(=O)(O)OC[C@H]3O[C@@H](n4cnc5c(=O)nc(N)[nH]c54)C[C@@H]3OP(=O)(O)OC[C@H]3O[C@@H](n4cnc5c(=O)[nH]c(=N)[nH]c54)C[C@@H]3OP(=O)(O)OC[C@H]3O[C@@H](n4cc(C)c(=O)[nH]c4=O)C[C@@H]3OP(=O)(O)OC[C@H]3O[C@@H](n4cnc5c(=O)nc(N)[nH]c54)C[C@@H]3OP(=O)(O)OC[C@H]3O[C@@H](n4cc(C)c(=O)[nH]c4=O)C[C@@H]3OP(=O)(O)OC[C@H]3O[C@@H](n4cnc5c(=O)nc(N)[nH]c54)C[C@@H]3OP(=O)(O)OC[C@H]3O[C@@H](n4cnc5c(=O)[nH]c(=N)[nH]c54)C[C@@H]3OP(=O)(O)OC[C@H]3O[C@@H](n4cc(C)c(=O)[nH]c4=O)C[C@@H]3OP(=O)(O)OC[C@H]3O[C@@H](n4cc(C)c(=O)[nH]c4=O)C[C@@H]3OP(=O)(O)OC[C@H]3O[C@@H](n4cnc5c(=O)[nH]c(=N)[nH]c54)C[C@@H]3OCOC[C@H]3O[C@@H](n4cnc5c(=O)nc(N)[nH]c54)C[C@@H]3O)[C@@H](COP(=O)(O)O[C@H]3C[C@H](n4cc(C)c(=O)[nH]c4=O)O[C@@H]3COP(=O)(O)O[C@H]3C[C@H](n4cnc5c(=O)[nH]c(=N)[nH]c54)O[C@@H]3COP(=O)(O)O[C@H]3C[C@H](n4cnc5c(=O)nc(N)[nH]c54)O[C@@H]3COP(=O)(O)O)O2)c(=O)[nH]c1=O | 0.8
7 | Cc1cn([C@H]2C[C@H](OCOC[C@H]3O[C@@H](n4cnc5c(=O)nc(N)[nH]c54)C[C@@H]3OP(=O)(O)OC[C@H]3O[C@@H](n4cnc5c(=O)[nH]c(=N)[nH]c54)C[C@@H]3OP(=O)(O)OC[C@H]3O[C@@H](n4cc(C)c(=O)[nH]c4=O)C[C@@H]3OCOC[C@H]3O[C@@H](n4cc(C)c(=O)[nH]c4=O)C[C@@H]3OP(=O)(O)OC[C@H]3O[C@@H](n4cnc5c(=O)[nH]c(=N)[nH]c54)C[C@@H]3OP(=O)(O)OC[C@H]3O[C@@H](n4cnc5c(=O)nc(N)[nH]c54)C[C@@H]3O)[C@@H](COP(=O)(O)O[C@H]3C[C@H](n4cnc5c(=O)nc(N)[nH]c54)O[C@@H]3COCO[C@H]3C[C@H](n4cc(C)c(=O)[nH]c4=O)O[C@@H]3COP(=O)(O)O[C@H]3C[C@H](n4cnc5c(=O)[nH]c(=N)[nH]c54)O[C@@H]3COP(=O)(O)O[C@H]3C[C@H](n4cnc5c(=O)nc(N)[nH]c54)O[C@@H]3COP(=O)(O)O[C@H]3C[C@H](n4cc(C)c(=O)[nH]c4=O)O[C@@H]3COCO[C@H]3C[C@H](n4cc(C)c(=O)[nH]c4=O)O[C@@H]3COP(=O)(O)O[C@H]3C[C@H](n4cnc5c(=O)[nH]c(=N)[nH]c54)O[C@@H]3COP(=O)(O)O[C@H]3C[C@H](n4cnc5c(=O)nc(N)[nH]c54)O[C@@H]3COP(=O)(O)O)O2)c(=O)[nH]c1=O | 0.5
